Laboratory results: patent publication US20180244699A1, “1-HYDROXY-3H-2,1-BENZOXABOROLE DERIVATIVES AND THEIR USE AS MICROBIOCIDES” (Syngenta Participations AG, priority 2015, published 2018)

Columns and labels:
Type in all cases: cell-based
[1] = tested on: Gaeumannomyces graminis; experiment: Gaeumannomyces graminis / liquid culture (take-all of cereals); settings: growth inhibition photometrically 4-5 days after application, compared to untreated control
Method: (§1) 6. Gaeumannomyces Graminis/Liquid Culture (Take-all of Cereals) Mycelial fragments of the fungus from cryogenic storage were directly mixed into nutrient broth (PDB potato dextrose broth). After placing a (DMSO) solution of test compound into a microtiter plate (96-well format), the nutrient broth containing the fungal spores is added. The test plates are incubated at 24° C. and the inhibition of growth is determined photometrically 4-5 days after application.

[2] = tested on: Pythium ultimum; experiment: Pythium ultimum / liquid culture (seedling damping off); settings: Globisporangium ultimum, growth inhibition photometrically 2-3 days after application, compared to untreated control
Method: 15. Pythium ultimum/Liquid Culture (Seedling Damping Off) Mycelia fragments and oospores of a newly grown liquid culture of the fungus are directly mixed into nutrient broth (PDB potato dextrose broth). After placing a (DMSO) solution of test compound into a microtiter plate (96-well format), the nutrient broth containing the fungal mycelia/spore mixture is added. The test plates are incubated at 24° C. and the inhibition of growth is determined photometrically 2-3 days after application.

[3] = tested on: Monographella nivalis (Microdochium nivale); experiment: Monographella nivalis (Microdochium nivale) / liquid culture (foot rot cereals); settings: growth inhibition photometrically 4-5 days after application, compared to untreated control
Method: as §1, with “8. Monographella nivalis (Microdochium nivale)/Liquid” for “6. Gaeumannomyces Graminis/Liquid”, “(Foot Rot” for “(Take-all of”, “Conidia” for “Mycelial fragments”, “are” for “were”

SMILES | inhibition of growth at 20 ppm [1] | inhibition of growth at 20 ppm [2] | inhibition of growth at 20 ppm [3]
COc1c(C(=O)Oc2ccc(C#N)cc2)ccc2c1B(O)OC2 [Compound 14, (4-cyanophenyl) 1-hydroxy-7-methoxy-3H-2,1-benzoxaborole-6-carboxylate] | ≥ 80% | ≥ 80% | –
COc1c(C(=O)NCc2c(C)cccc2Cl)ccc2c1B(O)OC2 [Compound 31, N-[(2-chloro-6-methyl-phenyl)methyl]-1-hydroxy-7-methoxy-3H-2,1-benzoxaborole-6-carboxamide] | – | ≥ 80% | ≥ 80%
CCOc1ccc(NC(=O)c2ccc3c(c2OC)B(O)OC3)cc1Cl [Compound 41, N-(3-chloro-4-ethoxy-phenyl)-1-hydroxy-7-methoxy-3H-2,1-benzoxaborole-6-carboxamide] | – | – | ≥ 80%
COc1c(C(=O)Nc2nc(C(C)C)ncc2C)ccc2c1B(O)OC2 [Compound 45, 1-hydroxy-N-(2-isopropyl-5-methyl-pyrimidin-4-yl)-7-methoxy-3H-2,1-benzoxaborole-6-carboxamide] | – | ≥ 80% | ≥ 80%
COc1c(C(=O)Nc2n[nH]c(C(F)(F)F)n2)ccc2c1B(O)OC2 [Compound 46, 1-hydroxy-7-methoxy-N-[5-(trifluoromethyl)-1H-1,2,4-triazol-3-yl]-3H-2,1-benzoxaborole-6-carboxamide] | – | ≥ 80% | ≥ 80%
COc1c(C(=O)N(C)c2nnc(C(F)(F)F)s2)ccc2c1B(O)OC2 [Compound 49, 1-hydroxy-7-methoxy-N-methyl-N-[5-(trifluoromethyl)-1,3,4-thiadiazol-2-yl]-3H-2,1-benzoxaborole-6-carboxamide] | – | ≥ 80% | ≥ 80%
COC(=O)c1cccc(NC(=O)c2ccc3c(c2OC)B(O)OC3)c1 [Compound 52, methyl 3-[(1-hydroxy-7-methoxy-3H-2,1-benzoxaborole-6-carbonyl)amino]benzoate] | – | ≥ 80% | ≥ 80%
COc1c(C(=O)Nc2ccc(Cl)cc2F)ccc2c1B(O)OC2 [Compound 54, N-(4-chloro-2-fluoro-phenyl)-1-hydroxy-7-methoxy-3H-2,1-benzoxaborole-6-carboxamide] | – | – | ≥ 80%
COc1c(C(=O)Nc2ccc(OC(F)(F)F)cc2)ccc2c1B(O)OC2 [Compound 55, 1-hydroxy-7-methoxy-N-[4-(trifluoromethoxy)phenyl]-3H-2,1-benzoxaborole-6-carboxamide] | – | – | ≥ 80%
COc1c(C(=O)NC(C)c2ccc(F)cc2)ccc2c1B(O)OC2 (centres unmarked) [Compound 57, N-[1-(4-fluorophenyl)ethyl]-1-hydroxy-7-methoxy-3H-2,1-benzoxaborole-6-carboxamide] | – | ≥ 80% | ≥ 80%
CCCNC(=O)c1ccc2c(c1OC)B(O)OC2 [Compound 63, 1-hydroxy-7-methoxy-N-propyl-3H-2,1-benzoxaborole-6-carboxamide] | – | ≥ 80% | ≥ 80%
COc1c(C(=O)Nc2ccc(C)cn2)ccc2c1B(O)OC2 [Compound 66, 1-hydroxy-7-methoxy-N-(5-methyl-2-pyridyl)-3H-2,1-benzoxaborole-6-carboxamide] | – | ≥ 80% | ≥ 80%
COc1c(C(=O)OCC(OC)c2ccccc2)ccc2c1B(O)OC2 (centres unmarked) [Compound 75, (2-methoxy-2-phenyl-ethyl) 1-hydroxy-7-methoxy-3H-2,1-benzoxaborole-6-carboxylate] | ≥ 80% | ≥ 80% | ≥ 80%
COc1c(C(=O)OCC2CCC=CO2)ccc2c1B(O)OC2 (centres unmarked) [Compound 77, 3,4-dihydro-2H-pyran-2-ylmethyl 1-hydroxy-7-methoxy-3H-2,1-benzoxaborole-6-carboxylate] | ≥ 80% | ≥ 80% | ≥ 80%
COc1c(C(=O)OCC#Cc2ccc(Cl)cc2)ccc2c1B(O)OC2 [Compound 80, 3-(4-chlorophenyl)prop-2-ynyl 1-hydroxy-7-methoxy-3H-2,1-benzoxaborole-6-carboxylate] | ≥ 80% | ≥ 80% | ≥ 80%
COc1c(C(=O)OCCOc2ccc(Cl)cc2)ccc2c1B(O)OC2 [Compound 81, 2-(4-chlorophenoxy)ethyl 1-hydroxy-7-methoxy-3H-2,1-benzoxaborole-6-carboxylate] | ≥ 80% | ≥ 80% | ≥ 80%

SMILES | inhibition of growth at 20 ppm [1] | inhibition of growth at 20 ppm [2] | inhibition of growth at 20 ppm [3]
COc1c(C(=O)OCc2ncc(Cl)cc2F)ccc2c1B(O)OC2 [Compound 87, (5-chloro-3-fluoro-2-pyridyl)methyl 1-hydroxy-7-methoxy-3H-2,1-benzoxaborole-6-carboxylate] | ≥ 80% | ≥ 80% | –
COc1c(C(=O)OCc2cccc(C(F)(F)F)c2)ccc2c1B(O)OC2 [Compound 88, [3-(trifluoromethyl)phenyl]methyl 1-hydroxy-7-methoxy-3H-2,1-benzoxaborole-6-carboxylate] | ≥ 80% | ≥ 80% | ≥ 80%
COC(=O)Nc1ccc(COC(=O)c2ccc3c(c2OC)B(O)OC3)cc1 [Compound 90, [4-(methoxycarbonylamino)phenyl]methyl 1-hydroxy-7-methoxy-3H-2,1-benzoxaborole-6-carboxylate] | ≥ 80% | ≥ 80% | ≥ 80%
COc1c(C(=O)OC(C)c2cc(C(F)(F)F)n[nH]2)ccc2c1B(O)OC2 (centres unmarked) [Compound 91, 1-[3-(trifluoromethyl)-1H-pyrazol-5-yl]ethyl 1-hydroxy-7-methoxy-3H-2,1-benzoxaborole-6-carboxylate] | ≥ 80% | ≥ 80% | –
COc1c(C(=O)OCc2c(Cl)cc(O)cc2Cl)ccc2c1B(O)OC2 [Compound 92, (2,6-dichloro-4-hydroxy-phenyl)methyl 1-hydroxy-7-methoxy-3H-2,1-benzoxaborole-6-carboxylate] | ≥ 80% | ≥ 80% | ≥ 80%
COc1c(C(=O)OCCON=C(C)C)ccc2c1B(O)OC2 [Compound 93, 2-(isopropylideneamino)oxyethyl 1-hydroxy-7-methoxy-3H-2,1-benzoxaborole-6-carboxylate] | ≥ 80% | ≥ 80% | –
COc1c(C(=O)OCC(C)(C)c2nnc(S)nc2O)ccc2c1B(O)OC2 [Compound 95, [2-(5-hydroxy-3-sulfanyl-1,2,4-triazin-6-yl)-2-methyl-propyl] 1-hydroxy-7-methoxy-3H-2,1-benzoxaborole-6-carboxylate] | ≥ 80% | ≥ 80% | ≥ 80%
COc1c(C(=O)OCc2nc(C)cs2)ccc2c1B(O)OC2 [Compound 96, (4-methylthiazol-2-yl)methyl 1-hydroxy-7-methoxy-3H-2,1-benzoxaborole-6-carboxylate] | ≥ 80% | ≥ 80% | ≥ 80%
COc1c(C(=O)OCn2cnc(Cl)c2Cl)ccc2c1B(O)OC2 [Compound 97, (4,5-dichloroimidazol-1-yl)methyl 1-hydroxy-7-methoxy-3H-2,1-benzoxaborole-6-carboxylate] | ≥ 80% | ≥ 80% | –
CCOC(=O)CC(OC(=O)c1ccc2c(c1OC)B(O)OC2)C(F)(F)F (centres unmarked) [Compound 101, [3-ethoxy-3-oxo-1-(trifluoromethyl)propyl] 1-hydroxy-7-methoxy-3H-2,1-benzoxaborole-6-carboxylate] | ≥ 80% | ≥ 80% | –
COc1c(C(=O)OCCn2nc(C)cc2OC(C)=O)ccc2c1B(O)OC2 [Compound 102, 2-(5-acetoxy-3-methyl-pyrazol-1-yl)ethyl 1-hydroxy-7-methoxy-3H-2,1-benzoxaborole-6-carboxylate] | ≥ 80% | ≥ 80% | –
COc1c(C(=O)OCc2cccc(C)n2)ccc2c1B(O)OC2 [Compound 119, (6-methyl-2-pyridyl)methyl 1-hydroxy-7-methoxy-3H-2,1-benzoxaborole-6-carboxylate] | – | ≥ 80% | ≥ 80%
COc1c(C(=O)OCc2cc(Cl)ccc2Cl)ccc2c1B(O)OC2 [Compound 120, (2,5-dichlorophenyl)methyl 1-hydroxy-7-methoxy-3H-2,1-benzoxaborole-6-carboxylate] | ≥ 80% | – | –
COc1c(C(=O)OCCc2ccccn2)ccc2c1B(O)OC2 [Compound 123, 2-(2-pyridyl)ethyl 1-hydroxy-7-methoxy-3H-2,1-benzoxaborole-6-carboxylate] | – | ≥ 80% | –
COc1cc(COC(=O)c2ccc3c(c2OC)B(O)OC3)ccc1O [Compound 126, (4-hydroxy-3-methoxy-phenyl)methyl 1-hydroxy-7-methoxy-3H-2,1-benzoxaborole-6-carboxylate] | – | ≥ 80% | –
